Source: US9586956B2, “Isoquinoline and naphthyridine derivatives” (Genentech, Inc., priority 2012, dated 2017)

Biological target: T1, purified human MAP4K4 kinase domain (Homo sapiens, UniProt O95819)
T1 construct: purified human MAP4K4 kinase domain
Assay: MAP4K4 Inhibition Assay Protocol No. 1 (Caliper LabChip, moesin-derived peptide phosphorylation)
Assay type: biochemical
Conditions: Assay 1; 1 nM enzyme, 10 uM ATP, 45 min
Procedure: The kinase activity of purified human MAP4K4 kinase domain was measured by monitoring the phosphorylation of a peptide substrate derived from moesin protein (Leu-Gly-Arg-Asp-Lys-Tyr-Lys-Thr-Leu-Arg-Gln-Ile-Arg-Gln) fluorescently labeled on the N-terminus with 5-carboxyfluorescein using the Caliper LabChip technology (Caliper Life Sciences, Hopkinton, Mass.). To determine inhibition constants (IC50), compounds were serially diluted in DMSO and added to 10 uL kinase reactions containing 1 nM purified MAP4K4 enzyme, 1 uM peptide substrate, 10 uM ATP, 10 mM MgCl2, 1 mM EGTA, 50 mM Hepes pH 7.2, 1 mM DTT, 0.01% Triton X-100, and 2% DMSO. Reactions were incubated at room temperature in Perkin Elmer Proxiplates for 45 minutes and stopped by the addition of 10 uL of an EDTA-containing solution (50 mM Hepes pH 7.2, 40 mM EDTA, 0.02% Triton X-100). The fraction of phosphorylated peptide was determined as a fraction of total peptide substrate using the Caliper Lab Chip 3000 according to the manufacturer's instructions. IC50 values were determined using the four-parameter non-linear fit model.

T1 sequence (O95819 25-289 limits assumed): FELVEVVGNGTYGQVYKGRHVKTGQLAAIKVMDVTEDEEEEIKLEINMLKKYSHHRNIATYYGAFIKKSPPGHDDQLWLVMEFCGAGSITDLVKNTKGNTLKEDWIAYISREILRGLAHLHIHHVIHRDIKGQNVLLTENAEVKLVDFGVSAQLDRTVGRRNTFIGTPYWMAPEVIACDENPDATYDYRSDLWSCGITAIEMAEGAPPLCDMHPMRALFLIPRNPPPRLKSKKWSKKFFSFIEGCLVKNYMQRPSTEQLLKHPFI

| SMILES | IC50 [µM] |
| --- | --- |
| Nc1ncc(C(=O)NCC2CC2)c2ccc(-c3cccc(F)c3)cc12 [Example 101, 1-amino-N-(cyclopropylmethyl)-7-(3-fluorophenyl) isoquinoline-4-carboxamide] | 0.0399 |
| Nc1ncc(C(=O)NC2CC2)c2ccc(-c3cccc(F)c3)nc12 [Example 13, 8-amino-N-cyclopropyl-2-(3-fluorophenyl)-1,7-naphthyridine-5-carboxamide] | 0.00129 |
| CS(=O)(=O)N1CCN(C(=O)c2cnc(N)c3cc(-c4cccc(F)c4)ccc23)CC1 [Example 48, [1-amino-7-(3-fluorophenyl)-4-isoquinolyl]-(4-methylsulfonylpiperazin-1-yl)methanone] | 4.2 |
| CN1CCC(Oc2ccc(NC(=O)c3cnc(N)c4cc(-c5cccc(F)c5)ccc34)cc2)CC1 [Example 86, 1-amino-7-(3-fluorophenyl)-N-[4-[(1-methyl-4-piperidyl)oxy]phenyl] isoquinoline-4-carboxamide] | 0.0081 |
| CNC(=O)c1nc(CNC(=O)c2cnc(N)c3cc(-c4cccc(F)c4)ccc23)no1 [Example 87, 3-[[[1-amino-7-(3-fluorophenyl)isoquinoline-4-carbonyl]amino]methyl]-N-methyl-1,2,4-oxadiazole-5-carboxamide] | 0.0452 |
| Nc1ncc(C(=O)NC2CN(C(=O)C3CC3)C2)c2ccc(-c3cccc(F)c3)cc12 [Example 126, 1-amino-N-[1-(cyclo-propanecarbonyl)azetidin-3-yl]-7-(3-fluorophenyl)isoquinoline-4-carboxamide] | 0.0357 |
| CC(C)(CNC(=O)c1cnc(N)c2cc(-c3cccc(F)c3)ccc12)N1CCOCC1 [Example 88, 1-amino-7-(3-fluorophenyl)-N-(2-methyl-2-morpholino-propyl)isoquinoline-4-carboxamide] | 0.95 |
| CC(=O)NCCNC(=O)c1cnc(N)c2cc(-c3cccc(F)c3)ccc12 [Example 80, N-(2-acetamidoethyl)-1-amino-7-(3-fluorophenyl) isoquinoline-4-carboxamide] | 0.25 |
| N#CCNC(=O)c1cnc(N)c2cc(-c3cccc(F)c3)ccc12 [Example 111, 1-amino-N-(cyanomethyl)-7-(3-fluorophenyl) isoquinoline-4-carboxamide] | 0.0441 |
| COCc1ccc(NC(=O)c2cnc(N)c3cc(-c4cccc(F)c4)ccc23)cc1 [Example 54, 1-amino-7-(3-fluorophenyl)-N-[4-(methoxymethyl)phenyl]isoquinoline-4-carboxamide] | 0.0175 |
| Nc1ncc(C(=O)NCC(=O)N2CCOCC2)c2ccc(-c3cccc(F)c3)cc12 [Example 81, 1-amino-7-(3-fluorophenyl)-N-(2-morpholino-2-oxo-ethyl)isoquinoline-4-carboxamide] | 0.138 |
| Nc1ncc(C(=O)NC2CC(O)C2)c2ccc(-c3cccc(F)c3)cc12 (stereo not shown) [Example 3, 1-amino-7-(3-fluorophenyl)-N-(3-hydroxycyclobutyl)isoquinoline-4-carboxamide] | 0.0388 |
| Nc1ncc(C(=O)NCCN2CCS(=O)(=O)CC2)c2ccc(-c3cccc(F)c3)cc12 [Example 76, 1-amino-N-[2-(1,1-dioxo-1,4-thiazinan-4-yl)ethyl]-7-(3-fluorophenyl) isoquinoline-4-carboxamide] | 0.245 |
| CN(C)C(=O)CN1CCN(C(=O)c2cnc(N)c3cc(-c4cccc(F)c4)ccc23)CC1 [Example 52, 2-[4-[1-amino-7-(3-fluorophenyl)isoquinoline-4-carbonyl]piperazin-1-yl]-N,N-dimethyl-acetamide] | 1.5 |
| Cc1cc(NC(=O)c2cnc(N)c3cc(-c4cccc(F)c4)ccc23)ccn1 [Example 95, 1-amino-7-(3-fluorophenyl)-N-(2-methyl-4-pyridyl) isoquinoline-4-carboxamide] | 0.0391 |
| Nc1ncc(C(=O)NC2CCOC2)c2ccc(-c3cccc(F)c3)cc12 (stereo not shown) [Example 112, 1-amino-7-(3-fluorophenyl)-N-tetrahydrofuran-3-yl-isoquinoline-4-carboxamide] | 0.0731 |
